tested on: HIV-1 IIIB; assay: HOS HIV-1 infectivity assay; type: cell-based; conditions: Human immunodeficiency virus 1, IIIB; as determined by the infectivity assay; strain not stated in Table 2; read-out: Activity Level
Experimental: Compounds were profiled against two HIV-1 viruses, the M-tropic (CCR5 utilizing) Ba-L strain and the T-tropic (CXCR4 utilizing) IIIB strain. Both viruses were propagated in human peripheral blood lymphocytes. Compounds were tested for there ability to block infection of the HOS cell line (expressing hCXCR4/hCCR5/hCD4/pHIV-LTR-luciferase) by either HIV-1 Ba-L or HIV-1 IIIB. Compound cytotoxicity was also examined in the absence of virus addition.
HOS cells (expressing hCXCR4/hCCR5/hCD4/pHIV-LTR-luciferase) were harvested and diluted in Dulbeccos modified Eagles media supplemented with 2% FCS and non-essential amino acid to a concentration of 60,000 cells/ml. The cells were plated into 96-well plates (100 ul per well) and the plates were placed in a tissue culture incubator (37° C.; 5% CO2/95% air) for a period of 24 h.
Subsequently, 50 ul of the desired drug solution (4 times the final concentration) was added to each well and the plates were returned to the tissue culture incubator (37° C.; 5% CO2/95% air) for 1 h. Following this incubation 50 ul of diluted virus was added to each well (approximately 2 million RLU per well of virus). The plates were returned to the tissue culture incubator (37° C.; 5% CO2/95% air) and were incubated for a further 96 h.
Following this incubation the endpoint for the virally infected cultures was quantified following addition of Steady-Glo Luciferase assay system reagent (Promega, Madison, Wis.). Cell viability or non-infected cultures was measured using a CellTiter-Glo luminescent cell viability assay system (Promega, Madison, Wis.). All luminescent readouts are performed on a Topcount luminescence detector (Packard, Meridien, Conn.).

First: CN1CCC[C@@H](Cn2c(CN(C)[C@@H]3CCCc4cccnc43)nc3ccccc32)C1 [Example 77, (8R)—N-Methyl-N-[(1-{[(3R)-1-methyl-3-piperidinyl]methyl}-1H-benzimidazol-2-yl)methyl]-5,6,7,8-tetrahydro-8-quinolinamine]
Second: CC(C)N1CCC[C@@H](Cn2c(CN(C)[C@@H]3CCCc4cccnc43)nc3ccccc32)C1 [Example 79, (8R)—N-Methyl-N-[(1-{[(3R)-1-(1-methylethyl)-3-piperidinyl]methyl}-1H-benzimidazol-2-yl)methyl]-5,6,7,8-tetrahydro-8-quinolinamine]
The IC50 of the first is higher: 100 to 500 nM for the first, less than 100 nM for the second. The second is the more potent here.

First: CC(C)CCN1CCC[C@@H](Cn2c(CN(C)[C@@H]3CCCc4cccnc43)nc3ccccc32)C1 [Example 78, (8R)—N-Methyl-N-[(1-{[(3R)-1-(3-methylbutyl)-3-piperidinyl]methyl}-1H-benzimidazol-2-yl)methyl]-5,6,7,8-tetrahydro-8-quinolinamine]
Second: CC(C)CCN1CCC[C@@H](Cn2c(CN(C)[C@H]3CCCc4cccnc43)nc3ccccc32)C1 [Example 80, (8S)—N-Methyl-N-[(1-{[(3R)-1-(3-methylbutyl)-3-piperidinyl]methyl}-1H-benzimidazol-2-yl)methyl]-5,6,7,8-tetrahydro-8-quinolinamine]
The IC50 of the first is higher: 100 to 500 nM for the first, less than 100 nM for the second. The second is the more potent here.

`CC(C)N1CCC[C@@H](Cn2c(CN(C)[C@H]3CCCc4cccnc43)nc3ccccc32)C1` [Example 81, (8S)—N-Methyl-N-[(1-{[(3R)-1-(1-methylethyl)-3-piperidinyl]methyl}-1H-benzimidazol-2-yl)methyl]-5,6,7,8-tetrahydro-8-quinolinamine] and `CC(C)N1CCC[C@H](Cn2c(CN(C)[C@@H]3CCCc4cccnc43)nc3ccccc32)C1` [Example 83, (8R)—N-methyl-N-[(1-{[(3S)-1-(1-methylethyl)-3-piperidinyl]methyl}-1H-benzimidazol-2-yl)methyl]-5,6,7,8-tetrahydro-8-quinolinamine] cannot be ordered by IC50: less than 100 nM for the first, less than 100 nM for the second.

`CC(C)CCN1CCC[C@H](Cn2c(CN(C)[C@@H]3CCCc4cccnc43)nc3ccccc32)C1` [Example 82, (8R)—N-Methyl-N-[(1-{[(3S)-1-(3-methylbutyl)-3-piperidinyl]methyl}-1H-benzimidazol-2-yl)methyl]-5,6,7,8-tetrahydro-8-quinolinamine] and `CC(C)CCN1CCC[C@H](Cn2c(CN(C)[C@H]3CCCc4cccnc43)nc3ccccc32)C1` [Example 84, (8S)—N-Methyl-N-[(1-{[(3S)-1-(3-methylbutyl)-3-piperidinyl]methyl}-1H-benzimidazol-2-yl)methyl]-5,6,7,8-tetrahydro-8-quinolinamine] cannot be ordered by IC50: less than 100 nM for the first, less than 100 nM for the second.

`CC(C)N1CCC[C@H](Cn2c(CN(C)[C@H]3CCCc4cccnc43)nc3ccccc32)C1` [Example 85, (8S)—N-Methyl-N-[(1-{[(3S)-1-(1-methylethyl)-3-piperidinyl]methyl}-1H-benzimidazol-2-yl)methyl]-5,6,7,8-tetrahydro-8-quinolinamine] and `CCCN(Cc1nc2ccccc2n1C[C@H]1CCCN(C(C)C)C1)[C@H]1CCCc2cccnc21` [Example 97, (8S)—N-[(1-{[(3S)-1-(1-methylethyl)-3-piperidinyl]methyl}-1H-benzimidazol-2-yl)methyl]-N-propyl-5,6,7,8-tetrahydro-8-quinolinamine] cannot be ordered by IC50: less than 100 nM for the first, less than 100 nM for the second.

First: CN(Cc1nc2ccccc2n1C[C@@H]1CCCN(C(=N)N)C1)[C@@H]1CCCc2cccnc21 [Example 86, (3S)-3-{[2-({Methyl[(8R)-5,6,7,8-tetrahydro-8-quinolinyl]amino}methyl)-1H-benzimidazol-1-yl]methyl}-1-piperidinecarboximidamide]
Second: CN(Cc1nc2ccccc2n1C[C@@H]1CCCN(C(=N)N)C1)[C@H]1CCCc2cccnc21 [Example 87, (3S)-3-{[2-({Methyl[(8S)-5,6,7,8-tetrahydro-8-quinolinyl]amino}methyl)-1H-benzimidazol-1-yl]methyl}-1-piperidinecarboximidamide]
The IC50 of the first is higher: 100 to 500 nM for the first, less than 100 nM for the second.

First: CN(Cc1nc2ccccc2n1C[C@H]1CCCN(C(=N)N)C1)[C@@H]1CCCc2cccnc21 [Example 88, (3R)-3-{[2-({Methyl[(8R)-5,6,7,8-tetrahydro-8-quinolinyl]amino}methyl)-1H-benzimidazol-1-yl]methyl}-1-piperidinecarboximidamide]
Second: CN(Cc1nc2ccccc2n1C[C@H]1CCCN(C(=N)N)C1)[C@H]1CCCc2cccnc21 [Example 89, (3R)-3-{[2-({Methyl[(8S)-5,6,7,8-tetrahydro-8-quinolinyl]amino}methyl)-1H-benzimidazol-1-yl]methyl}-1-piperidinecarboximidamide]
The IC50 of the first is higher: 100 to 500 nM for the first, less than 100 nM for the second.

Compared with `CCCN/C(=N\C#N)N1CCC[C@H](Cn2c(CN(C)[C@H]3CCCc4cccnc43)nc3ccccc32)C1` [Example 90, (3R)—N-Cyano-3-{[2-({methyl[(8S)-5,6,7,8-tetrahydro-8-quinolinyl]amino}methyl)-1H-benzimidazol-1-yl]methyl}-N′-propyl-1-piperidinecarboximidamide], `CN(Cc1nc2ccccc2n1C[C@H]1CCCN(/C(N)=N/C#N)C1)[C@H]1CCCc2cccnc21` [Example 91, (3R)—N-Cyano-3-{[2-({methyl[(8S)-5,6,7,8-tetrahydro-8-quinolinyl]amino}methyl)-1H-benzimidazol-1-yl]methyl}-1-piperidinecarboximidamide] is lower in IC50: 100 to 500 nM for the first, less than 100 nM for the second.

First: CN(C)/C(=N\C#N)N1CCC[C@H](Cn2c(CN(C)[C@H]3CCCc4cccnc43)nc3ccccc32)C1 [Example 92, (3R)—N′-Cyano-N,N-dimethyl-3-{[2-({methyl[(8S)-5,6,7,8-tetrahydro-8-quinolinyl]amino}methyl)-1H-benzimidazol-1-yl]methyl}-1-piperidinecarboximidamide]
Second: CN(C)CC(C)(C)CN1CCC[C@H](Cn2c(CN(C)[C@H]3CCCc4cccnc43)nc3ccccc32)C1 [Example 101, (8S)—N-{[1-({(3S)-1-[3-(Dimethylamino)-2,2-dimethylpropyl]-3-piperidinyl}methyl)-1H-benzimidazol-2-yl]methyl}-N-methyl-5,6,7,8-tetrahydro-8-quinolinamine]
The IC50 of the first is higher: 100 to 500 nM for the first, less than 100 nM for the second.

`CCCN(Cc1nc2ccccc2n1C[C@H]1CCCN(C)C1)[C@H]1CCCc2cccnc21` [Example 93, (8S)—N-[(1-{[(3S)-1-Methyl-3-piperidinyl]methyl}-1H-benzimidazol-2-yl)methyl]-N-propyl-5,6,7,8-tetrahydro-8-quinolinamine] and `CN1CCC[C@H](Cn2c(CN(CCO)[C@H]3CCCc4cccnc43)nc3ccccc32)C1` [Example 95, 2-{[(1-{[(3S)-1-Methyl-3-piperidinyl]methyl}-1H-benzimidazol-2-yl)methyl][(8S)-5,6,7,8-tetrahydro-8-quinolinyl]amino}ethanol] cannot be ordered by IC50: less than 100 nM for the first, less than 100 nM for the second.

`CC(C)CN(Cc1nc2ccccc2n1C[C@H]1CCCN(C)C1)[C@H]1CCCc2cccnc21` [Example 94, (8S)—N-[(1-{[(3S)-1-Methyl-3-piperidinyl]methyl}-1H-benzimidazol-2-yl)methyl]-N-(2-methylpropyl)-5,6,7,8-tetrahydro-8-quinolinamine] and `CC(C)CN(Cc1nc2ccccc2n1C[C@H]1CCCN(C(C)C)C1)[C@H]1CCCc2cccnc21` [Example 98, (8S)—N-[(1-{[(3S)-1-(1-Methylethyl)-3-piperidinyl]methyl}-1H-benzimidazol-2-yl)methyl]-N-(2-methylpropyl)-5,6,7,8-tetrahydro-8-quinolinamine] fall in the same range of IC50: 100 to 500 nM for the first, 100 to 500 nM for the second.

`CN1CCC[C@H](Cn2c(CN(CCCO)[C@H]3CCCc4cccnc43)nc3ccccc32)C1` [Example 96, 3-{[(1-{[(3S)-1-Methyl-3-piperidinyl]methyl}-1H-benzimidazol-2-yl)methyl][(8S)-5,6,7,8-tetrahydro-8-quinolinyl]amino}-1-propanol] and `CC(C)N1CCC[C@H](Cn2c(CN(CCCO)[C@H]3CCCc4cccnc43)nc3ccccc32)C1` [Example 100, 3-{[(1-{[(3S)-1-(1-Methylethyl)-3-piperidinyl]methyl}-1H-benzimidazol-2-yl)methyl][(8S)-5,6,7,8-tetrahydro-8-quinolinyl]amino}-1-propanol] cannot be ordered by IC50: less than 100 nM for the first, less than 100 nM for the second.

`CC(C)N1CCC[C@H](Cn2c(CN(CCO)[C@H]3CCCc4cccnc43)nc3ccccc32)C1` [Example 99, 2-{[(1-{[(3S)-1-(1-Methylethyl)-3-piperidinyl]methyl}-1H-benzimidazol-2-yl)methyl][(8S)-5,6,7,8-tetrahydro-8-quinolinyl]amino}ethanol] and `CN(Cc1nc2ccccc2n1C[C@H]1CCCN(Cc2cccs2)C1)[C@H]1CCCc2cccnc21` [Example 102, (8S)—N-Methyl-N-[(1-{[(3S)-1-(2-thienylmethyl)-3-Piperidinyl]methyl}-1H-benzimidazol-2-yl)methyl]-5,6,7,8-tetrahydro-8-quinolinamine] cannot be ordered by IC50: less than 100 nM for the first, less than 100 nM for the second.

Work on `CN(Cc1nc2ccccc2n1C[C@H]1CCCN(Cc2nccs2)C1)[C@H]1CCCc2cccnc21` [Example 103, (8S)—N-Methyl-N-[(1-{[(3S)-1-(1,3-thiazol-2-ylmethyl)-3-piperidinyl]methyl}-1H-benzimidazol-2-yl)methyl]-5,6,7,8-tetrahydro-8-quinolinamine] yielded an IC50 of 100 to 500 nM.

— US20080096861A1, “Chemical Compounds” (SMITHKLINE BEECHAM CORPORATION, priority 2004, published 2008)
